Measurements published in patent US20200030355A1, “COMBINATION THERAPY FOR TREATING CANCER” (Epizyme, Inc., priority 2014, published 2020).
Counter-ions that a name gives are not always drawn.

These molecules were tested on MOLM-13 cells (assay: EPZ-5676 300 nM 7-day pre-treatment, then second compound 72 hours, ATPLite, IC50 shift (Example 6)). Settings: 300 nM EPZ-5676 or DMSO 7-day pre-treatment, then 2nd compound 72 hours, Synergy = IC50 of 2nd compound decreased by 2-fold or more vs DMSO control.
Assay type: cell-based, human
Method: Cells were then equilibrated in incubators for 24 hours before treatment with a second compound. Treated assay plates were incubated with a second compound for 72 hours. After this time, plates were developed for endpoint analysis using ATPLite to measure ATP content, which is used as an indicator of cell viability.
“N/D” means that IC50 of the second compound could not be determined for both conditions.
In the case of Clc1ccc(C2(c3ccc(-c4cn[nH]c4)cc3)CCNCC2)cc1 [AT7867], the “MOLM-13 (summary of combination study: EPZ-5676 + 2nd compound)” value was “Synergy (considered synergistic if the IC50 value of the second compound decreased by 2-fold or more when EPZ-5676 was added as compared to the DMSO control)”.
In the case of CC1=C(/C=C/C(C)=C\C=C\C(C)=C\C(=O)O)C(C)(C)CCC1 [Alitretinoin], the “MOLM-13 (summary of combination study: EPZ-5676 + 2nd compound)” value was “Synergy (considered synergistic if the IC50 value of the second compound decreased by 2-fold or more when EPZ-5676 was added as compared to the DMSO control)”.
For CC(=O)OC[C@H]1O[C@@H]([S-])[C@H](OC(C)=O)[C@@H](OC(C)=O)[C@@H]1OC(C)=O.CCP(CC)CC.[Au+] [Auranofin], the “MOLM-13 (summary of combination study: EPZ-5676 + 2nd compound)” value was “Synergy (considered synergistic if the IC50 value of the second compound decreased by 2-fold or more when EPZ-5676 was added as compared to the DMSO control)”.
In the case of Cc1cc(Cl)cc(OCCn2cc(F)cn2)c1-c1nc(N)nc2c1CN(C(=O)NCC(C)(F)F)C2 [BEP800], the “MOLM-13 (summary of combination study: EPZ-5676 + 2nd compound)” value was “Synergy (considered synergistic if the IC50 value of the second compound decreased by 2-fold or more when EPZ-5676 was added as compared to the DMSO control)”.
In the case of COc1cc2nc(N3CCCN(C)CC3)nc(NC3CCN(Cc4ccccc4)CC3)c2cc1OC [BIX01294], the “MOLM-13 (summary of combination study: EPZ-5676 + 2nd compound)” value was “Synergy (considered synergistic if the IC50 value of the second compound decreased by 2-fold or more when EPZ-5676 was added as compared to the DMSO control)”.
In the case of Cn1ncnc1[C@H]1c2n[nH]c(=O)c3cc(F)cc(c23)N[C@@H]1c1ccc(F)cc1 [BMN 673], the “MOLM-13 (summary of combination study: EPZ-5676 + 2nd compound)” value was “Synergy (considered synergistic if the IC50 value of the second compound decreased by 2-fold or more when EPZ-5676 was added as compared to the DMSO control)”.
In the case of Cc1ccc2nc(NCCN)c3ncc(C)n3c2c1 [BMS 345541], the “MOLM-13 (summary of combination study: EPZ-5676 + 2nd compound)” value was “Synergy (considered synergistic if the IC50 value of the second compound decreased by 2-fold or more when EPZ-5676 was added as compared to the DMSO control)”.
With C[C@@]1(C(=O)Nc2ccc(F)nc2)CCCN1c1nc(Nc2cc(C3CC3)n[nH]2)c2cccn2n1 [BMS-754807] the “MOLM-13 (summary of combination study: EPZ-5676 + 2nd compound)” value was “Synergy (considered synergistic if the IC50 value of the second compound decreased by 2-fold or more when EPZ-5676 was added as compared to the DMSO control)”.
CCS(=O)(=O)N1CC(CC#N)(n2cc(-c3ncnc4[nH]ccc34)cn2)C1 [Baricitinib] was tested, and the “MOLM-13 (summary of combination study: EPZ-5676 + 2nd compound)” value was “Synergy (considered synergistic if the IC50 value of the second compound decreased by 2-fold or more when EPZ-5676 was added as compared to the DMSO control)”.
CC[C@H](Nc1ncnc2[nH]cnc12)c1nc2cccc(F)c2c(=O)n1-c1ccccc1 [CAL-101] was tested, and the “MOLM-13 (summary of combination study: EPZ-5676 + 2nd compound)” value was “Synergy (considered synergistic if the IC50 value of the second compound decreased by 2-fold or more when EPZ-5676 was added as compared to the DMSO control)”.
For N.N.[Cl][Pt][Cl] [Cisplatin], the “MOLM-13 (summary of combination study: EPZ-5676 + 2nd compound)” value was “Synergy (considered synergistic if the IC50 value of the second compound decreased by 2-fold or more when EPZ-5676 was added as compared to the DMSO control)”.
In the case of CC(C)(C)c1nc(-c2cccc(NS(=O)(=O)c3c(F)cccc3F)c2F)c(-c2ccnc(N)n2)s1 [Dabrafenib], the “MOLM-13 (summary of combination study: EPZ-5676 + 2nd compound)” value was “Synergy (considered synergistic if the IC50 value of the second compound decreased by 2-fold or more when EPZ-5676 was added as compared to the DMSO control)”.
For COc1cc([C@@H]2c3cc4c(cc3[C@@H](O[C@@H]3O[C@@H]5CO[C@@H](C)O[C@H]5[C@H](O)[C@H]3O)[C@H]3COC(=O)[C@H]23)OCO4)cc(OC)c1O [Etoposide], the “MOLM-13 (summary of combination study: EPZ-5676 + 2nd compound)” value was “Synergy (considered synergistic if the IC50 value of the second compound decreased by 2-fold or more when EPZ-5676 was added as compared to the DMSO control)”.
In the case of CO[C@H]1C[C@@H]2CC[C@@H](C)[C@@](O)(O2)C(=O)C(=O)N2CCCC[C@H]2C(=O)O[C@H]([C@H](C)C[C@@H]2CC[C@@H](OCCO)[C@H](OC)C2)CC(=O)[C@H](C)/C=C(\C)[C@@H](O)[C@@H](OC)C(=O)[C@H](C)C[C@H](C)/C=C/C=C/C=C/1C [Everolimus], the “MOLM-13 (summary of combination study: EPZ-5676 + 2nd compound)” value was “Synergy (considered synergistic if the IC50 value of the second compound decreased by 2-fold or more when EPZ-5676 was added as compared to the DMSO control)”.
COc1cc(Nc2ncc(F)c(Nc3ccc4c(n3)N(COP(=O)(O)O)C(=O)C(C)(C)O4)n2)cc(OC)c1OC [Fostamatinib disodium] was tested, and the “MOLM-13 (summary of combination study: EPZ-5676 + 2nd compound)” value was “Synergy (considered synergistic if the IC50 value of the second compound decreased by 2-fold or more when EPZ-5676 was added as compared to the DMSO control)”.
In the case of Cc1cccc(CC(=O)N2CCc3c2ccc(-c2cn(C)c4ncnc(N)c24)c3F)n1 [GSK2656157], the “MOLM-13 (summary of combination study: EPZ-5676 + 2nd compound)” value was “Synergy (considered synergistic if the IC50 value of the second compound decreased by 2-fold or more when EPZ-5676 was added as compared to the DMSO control)”.
With c1ccc([C@@H]2C[C@H]2NC2CCNCC2)cc1 [GSK-LSD1] the “MOLM-13 (summary of combination study: EPZ-5676 + 2nd compound)” value was “Synergy (considered synergistic if the IC50 value of the second compound decreased by 2-fold or more when EPZ-5676 was added as compared to the DMSO control)”.
Cn1c2ccccc2c2c3c(c4c5ccccc5n(CCC#N)c4c21)CNC3=O [Go 6976] was tested, and the “MOLM-13 (summary of combination study: EPZ-5676 + 2nd compound)” value was “Synergy (considered synergistic if the IC50 value of the second compound decreased by 2-fold or more when EPZ-5676 was added as compared to the DMSO control)”.
With CCc1c2c(nc3ccc(OC(=O)N4CCC(N5CCCCC5)CC4)cc13)-c1cc3c(c(=O)n1C2)COC(=O)[C@]3(O)CC [Irinotecan Hydrochloride] the “MOLM-13 (summary of combination study: EPZ-5676 + 2nd compound)” value was “Synergy (considered synergistic if the IC50 value of the second compound decreased by 2-fold or more when EPZ-5676 was added as compared to the DMSO control)”.
For c1ccc2c(CCNc3ccc(Nc4ccncc4)cc3)c[nH]c2c1 [JNJ 26854165], the “MOLM-13 (summary of combination study: EPZ-5676 + 2nd compound)” value was “Synergy (considered synergistic if the IC50 value of the second compound decreased by 2-fold or more when EPZ-5676 was added as compared to the DMSO control)”.
CC(=O)O/N=C1\C(=O)N(Cc2cc(Cl)ccc2Cl)c2ccc(Cl)cc21 [LDN 57444] was tested, and the “MOLM-13 (summary of combination study: EPZ-5676 + 2nd compound)” value was “Synergy (considered synergistic if the IC50 value of the second compound decreased by 2-fold or more when EPZ-5676 was added as compared to the DMSO control)”.
In the case of Cc1cnc(NC(=O)Nc2cc(Br)c(C)cc2OC[C@@H]2CNCCO2)cn1 [LY2603618], the “MOLM-13 (summary of combination study: EPZ-5676 + 2nd compound)” value was “Synergy (considered synergistic if the IC50 value of the second compound decreased by 2-fold or more when EPZ-5676 was added as compared to the DMSO control)”.
With CS(=O)(=O)CCNCc1ccc(-c2ccc3ncnc(Nc4ccc(OCc5cccc(F)c5)c(Cl)c4)c3c2)o1 [Lapatinib] the “MOLM-13 (summary of combination study: EPZ-5676 + 2nd compound)” value was “Synergy (considered synergistic if the IC50 value of the second compound decreased by 2-fold or more when EPZ-5676 was added as compared to the DMSO control)”.
With Cc1cc(/N=N/c2ccc(S(=O)(=O)Nc3ccccn3)cc2)c(N)cc1O [MS 436] the “MOLM-13 (summary of combination study: EPZ-5676 + 2nd compound)” value was “Synergy (considered synergistic if the IC50 value of the second compound decreased by 2-fold or more when EPZ-5676 was added as compared to the DMSO control)”.
Nc1ccccc1NC(=O)c1ccc(CNC(=O)OCc2cccnc2)cc1 [MS-275] was tested, and the “MOLM-13 (summary of combination study: EPZ-5676 + 2nd compound)” value was “Synergy (considered synergistic if the IC50 value of the second compound decreased by 2-fold or more when EPZ-5676 was added as compared to the DMSO control)”.
